Laboratory results as given in US10746637B2, “Aldehyde scavenging agent for retrieving elements from fixed tissue” (University of Houston System, priority 2013, dated 2020).
Entries after “also recorded” stand apart in the source; their conditions may differ. Where two headings read alike, the source gives them in different places.

What was measured:
Angiotensin I = assay: Mass spectrometry of formalin treated Angiotensin I after heating with aldehyde scavenging compounds; details: 5% compound, 95° C., 45 minutes
Experimental: Angiotensin I is treated with formalin at room temperature for 48 hours. […] Mass-spectrometry is used to analyze the compositions of the Angiotensin I before and after treatment by each compound. Samples of Angiotensin I before (FIG. 11A) and after (FIG. 11B) formalin treatments are used as the controls for the experiment. Peaks at m/z 1296 represent unmodified Angiotensin I. Peaks at m/z 1308 represent Angiotensin I with 1 methylene unit. Peaks at m/z 1320 represent Angiotensin I with 2 methylene units. Peaks at m/z 1338 represent Angiotensin I with 1 methylene unit and 1 hydroxymethylene group. Peaks at m/z 1350 represent Angiotensin I with 2 methylene units and 1 hydroxymethylene group.

blood vessels = assay: Antigen retrieval in paraformaldehyde fixed vascular tissue, visualization of blood vessels; details: paraformaldehyde fixed tissue heated in solution of compound (FIGS. 4A-4E)
Description: Paraformaldehyde fixed tissue samples are heated in solutions of compounds prepared as described in Example 1 and the blood vessels in the tissue are visualized.

Collagen IV [1] = assay: Immunohistochemical staining of Collagen IV on formalin fixed paraffin embedded mouse brain sections after antigen retrieval with formaldehyde scavengers and enhancer; parameters: key: − being non-reactive; Immunoreactivity was scored on a scale of − to +++; Immunoreactivity was scored on a scale of − to +++; +++ being highly reactive; details: concentrations in label, 45 minutes at 95° C.
Experimental: 12-month-old C57Bl6J mice were housed under controlled environment conditions on a condition al 12 hour light dark cycle. Following sacrifice, brains were post-fixed in 4% paraformaldehyde for 72 hours at […] and then transferred to 70% ethanol solution where they were stored at 4° C. Tissue was paraffin-processed using convention dehydration and embedding, and then sectioned at 5 μm intervals.
Tissues were deparaffinized and rehydrated. Slides were placed in a plastic Coplin jar containing either distilled water or a combination of formaldehyde scavengers in combination with an enhancer. Jars were covered with a loose fitting screw cap and heated in a pressure cooker for 45 minutes at 95° C. After heating, the Coplin jars were removed and allowed to cool and rinsed in TBST for five minutes.
Immunohistochemical staining was performed using a three-step immunostaining technique using the ABC method. Briefly, all incubations were performed as follows: 1) primary antibodies were incubated overnight at 4° C., 2) secondary antibodies were incubated for 10 minutes at room temperature, 3) streptavidin-conjugated enzyme was incubated for 10 minutes at room temperature, 4) peroxidase substrate was incubated for 1 minute.

GAPDH = assay: Dot blot of GAPDH in formaldehyde treated tissues; details: maleic acid 1.6% to 12.8%, 95° C. for 30 minutes (FIG. 6B)
ACTH (18-39) peptide = assay: Mass spectrometry of formalin treated ACTH (18-39) peptide after heating with formaldehyde scavenging agents; details: 5% compound, 98° C. for 45 minutes as printed with the result (method says 90° C.)
Experimental: ACTH (18-39) peptide is treated with formalin at room temperature for 48 hours (FIG. 12A). […] The composition of the formalin treated ACTH after each treatment is analyzed using mass spectrometry. The results shown in FIGS. 12A-12D are used to investigate the ability of the agents to reverse formaldehyde adducts. […] Only a small amount of ACTH with 3 methylene units is detected.

collagen IV [2] = details: microscope images, figure legends
RNA = assay: Recovery of RNA from formalin-fixed paraffin-embedded tissue samples (FIG. 30); details: compared to control buffer (FIG. 30)
GFAP = assay: Microscope images of GFAP immunostaining after antigen retrieval (FIGS. 15-18)
Collagen IV [3] = assay: Immunohistochemical staining of Collagen IV after antigen retrieval with 0.05% maleic acid and cooling in a second solution; parameters: species or system mouse; key to Result (immunoreactivity, Collagen IV staining): − being non-reactive; Immunoreactivity was scored on a scale of − to +++; Immunoreactivity was scored on a scale of − to +++; +++ being highly reactive; details: for immunostaining of Collagen IV after antigen retrieval with maleic acid and cooling to room temperature: FIGS. 31A-31C, compared to dH2O; for Result (immunoreactivity, Collagen IV staining): Table 9, retrieval with 0.05% maleic acid 45 minutes at 95° C., then cooling to room temperature in the named solution (10% guanidine or 2,2,2-trifluoroethanol in water)
Experimental: 12-month-old […] mice were housed under controlled environment conditions on a condition al 12 hour light dark cycle. Following sacrifice, brains were post-fixed in 4% paraformaldehyde for 72 hours at 4° C. and then transferred to 70% ethanol solution where they were stored at 4° C. Tissue was paraffin-processed using convention dehydration and embedding, and then sectioned at 5 μm intervals. Tissues were deparaffinized and rehydrated. […] Jars were covered with a loose fitting screw cap and heated in a pressure cooker for 45 minutes at 95° C. After heating, the Coplin jars were removed and slides were allowed to cool to room temperature in either 10% guanidine or 2,2,2-trifluoroethanol in water and rinsed in TBST for five minutes. Immunohistochemical staining was performed using a three-step immunostaining technique using the ABC method. Briefly, all incubations were performed as follows: 1) primary antibodies were incubated overnight at 4° C., 2) secondary antibodies were incubated for 10 minutes at room temperature, 3) streptavidin-conjugated enzyme was incubated for 10 minutes at room temperature, 4) peroxidase substrate was incubated for 1 minute.

Collagen IV [4] = assay: Antigen retrieval in adult human brain vasculature, Collagen IV staining; details: paraformaldehyde fixed paraffin embedded adult human brain tissue (FIG. 7)
Experimental: Paraformaldehyde fixed paraffin embedded tissue from adult human brain is treated with 2,3-dimethylmaleic acid as an antigen retrieval method as described.

[5] = Autofluorescence of heated paraformaldehyde fixed paraffin embedded brain tissue; details: 5% ascorbic acid; 70° C., 30 minutes; 488 nm excitation; versus tissue heated only in water
Description: Images are captured at same exposure and time.

collagen IV [6] = assay: Antigen retrieval and immunodetection of collagen IV in paraformaldehyde fixed tissues (general method); details: 0.05% maleic anhydride pretreatment; compared with TBST, low pH sodium citrate, pepsin (FIGS. 2A-2D)
Experimental: The solution is heated to about 70° C. to about 95° C. for about 30 minutes. The ensuing chemical reaction enables the unmasking or retrieval of the chemical epitopes. The formaldehyde-fixed tissue is placed into the heated solution for about 30 minutes and then washed. The tissues can then be stained to detect the protein of interest.

collagen IV [7] = assay: Fluorescent enhancement after antigen retrieval with addition of Triton, Collagen IV detection of blood vessels; details: 0.5% Triton X-100 added to 5.0% ascorbic acid solution; 70° C., 30 minutes; 488 nm excitation; versus without Triton X-100
Description: Images are captured using 488 nm excitation.

[8] = microscope images, figure legends

O=C(O)/C=C\C(=O)O [0.05% Maleic acid, Maleic acid]
amount of Angiotensin I with 2 methylene units (m/z 1320) (Angiotensin I): significantly reduce
content of unmodified Angiotensin I (m/z 1296) (Angiotensin I): higher content of unmodified Angiotensin I
antigen retrieval with visualization of the blood vessels (blood vessels): successful antigen retrieval
Result (immunoreactivity, Collagen IV staining) (Collagen IV [1]; Table 8, 0.05% maleic acid alone or with aniline): +
detection of GAPDH (dot blot) (GAPDH): parallel increase in the detection of GAPDH
conversion of modified ACTH (1, 2 or 3 methylene groups) into unmodified ACTH (m/z 2465) (ACTH (18-39) peptide): convert almost all the modified ACTH

NO [1% Hydroxylamine, Hydroxylamine]
retrieval of formalin adducts of Angiotensin I (Angiotensin I): significant retrieval of formalin adducts
Result (immunoreactivity, Collagen IV staining) (Collagen IV [1]; Table 3, 1% hydroxylamine alone or with 4-aminophenol): +
Result (immunoreactivity, Collagen IV staining) (Collagen IV [1]; Table 4, 1% hydroxylamine alone or with aniline): +
Result (immunoreactivity, Collagen IV staining) (Collagen IV [1]; Table 5, 0.5% hydroxylamine alone or with aniline): +
immunostaining of Collagen IV after antigen retrieval (collagen IV [2]): enhanced immunostaining
recovery of RNA from formalin-fixed paraffin-embedded tissue samples (RNA): enhanced recovery of RNA

Sc1nc(S)nc(S)n1 [1,3,5-triazine-2,4,6-trithiol]
immunostaining of GFAP after antigen retrieval (GFAP; [8]): enhanced immunostaining

OCC(F)(F)F [2,2,2-Trifluoroethanol]
immunostaining of Collagen IV after antigen retrieval with maleic acid and cooling to room temperature (Collagen IV [3]): enhanced immunostaining
Result (immunoreactivity, Collagen IV staining) (Collagen IV [3]): ++

C/C(C(=O)O)=C(\C)C(=O)O [2,3-dimethylmaleic acid]
detection of blood vessels using Collagen IV (Collagen IV [4]): Blood vessels were detected

CC1=C(C)C(=O)OC1=O [2,3-dimethylmaleic anhydride]
antigen retrieval with visualization of the blood vessels (blood vessels): successful antigen retrieval

N=C(N)N [Guanidine]
amount of Angiotensin I with 2 methylene units (m/z 1320) (Angiotensin I): does not exhibit any impact
content of Angiotensin I with 1 methylene unit and 1 hydroxymethylene group (m/z 1338) (Angiotensin I): minimal ability to retrieve
immunostaining of Collagen IV after antigen retrieval with maleic acid and cooling to room temperature (Collagen IV [3]): enhanced immunostaining
Result (immunoreactivity, Collagen IV staining) (Collagen IV [3]): ++
immunostaining of Collagen IV after antigen retrieval (collagen IV [2]): enhanced immunostaining

O=C1O[C@H]([C@@H](O)CO)C(O)=C1O [ascorbic acid]
retrieval of formalin adducts of Angiotensin I (Angiotensin I): significant retrieval of formalin adducts
tissue autofluorescence [5]: dramatically reduces visible autofluorescence; also recorded: reduction of autofluorescence
conversion of modified ACTH (1, 2 or 3 methylene groups) into unmodified ACTH (m/z 2465) (ACTH (18-39) peptide): convert almost all the modified ACTH

NCCS [cysteamine]
immunostaining of GFAP after antigen retrieval (GFAP; [8]): enhanced immunostaining

N[C@@H](CS)C(=O)O [cysteine]
retrieval of formalin adducts of Angiotensin I (Angiotensin I): significant retrieval of formalin adducts
immunostaining of GFAP after antigen retrieval (GFAP; [8]): enhanced immunostaining

O=C(O)/C=C/C(=O)O [fumaric acid, reference compound]
antigen retrieval with visualization of the blood vessels (blood vessels): significant reduction in activity

O=C1C=CC(=O)O1 [maleic anhydride]
antigen retrieval with visualization of the blood vessels (blood vessels): successful antigen retrieval
antigen retrieval and immunodetection of collagen IV (collagen IV [6]): Superior antigen retrieval and immunodetection

O=S([O-])O.[Na+] [sodium bisulfite]
immunostaining of GFAP after antigen retrieval (GFAP): enhanced immunostaining

O=S([O-])S(=O)(=O)[O-].[Na+].[Na+] [sodium metabisulfite]
immunostaining of GFAP after antigen retrieval (GFAP; [8]): enhanced immunostaining

O=C1CCC(=O)O1 [succinic anhydride, reference compound]
antigen retrieval with visualization of the blood vessels (blood vessels): no vasculature is visible

Triton X-100
staining evenness and fluorescence intensity after antigen retrieval (collagen IV [7]): significant improvement in staining evenness and intensity; also recorded: enhancement of fluorescence
